According to patent US20180030546A1, “Identification of a 5-Gene Expression Signature Predicting Clinical Outcome of Patients with Brain Tumors” (THE TRUSTEES OF COLUMBIA UNIVERSITY IN THE CITY OF NEW YORK, priority 2012, published 2018):

How the values were obtained:
[1] = test system: Ras-V12-IRES-Cre-ER-shp53 HGG; experiment: Survival of glioma-bearing Id-cTKO mice treated with tamoxifen or oil; type: in vivo, mouse
[2] = test system: SSEA1 and ITGα6 positive GICs; experiment: Proximity of GICs to CD31 positive endothelial cells in the perivascular niche; type: in vivo, mouse; settings: Id-cTKO tumors versus controls
Description: (§1) Tissue preparation and immunohistochemistry on brain tumors and immunofluorescence staining were performed as previously described (26, 50, 51). In histograms, values represent the mean values; error bars are standard deviations (SD) or standard error of the mean (SEM) as indicated in Figure legends. Statistical significance was determined by t test (two-tailed) using GraphPad Prism 4.0 software (GraphPad Inc., San Diego, Calif.). Quantification of the IL-6 intensity staining in was performed using NIH Image J software (http://rsb.info.nih.gov/ij/). The histogram of the intensity of fluorescence of each point of a representative field for each condition was generated. The fluorescence intensity of three fields from three independent tumors was scored, and standardized to the number of cells in the field.

[3] = test system: GICs from HrasV12-Cre-ER-shp53 glioma; experiment: Glioma sphere formation and limiting dilution assay; type: cell-based, mouse
Description: For human and mouse glioma sphere formation, cells were infected with lentiviral particles. Three days later single cells were plated at density of ≦3 cells/well in triplicate in low attachment 96 well plates. The number and the size of spheres were scored after 10-14 days. Limiting dilution assay was performed as described previously (24). Spheres were dissociated into single cells and plated in 96-well plates in 0.2 ml of medium containing growth factors. Cultures were left undisturbed for 10 days, and then the percentage of wells not containing spheres for each cell dilution was calculated and plotted against the number of cells per well. Linear regression lines were plotted, and the number of cells required to generate at least one sphere in every well (=the stem cell frequency) was calculated. The experiment was repeated twice.

[4] = test system: Ras-V12-IRES-Cre-ER-shp53 HGG; experiment: Histology and immunostaining of Ras-V12-IRES-Cre-ER-shp53 tumors after tamoxifen or oil; type: in vivo, mouse
Description: as §1
Intracranial injection of Ras-V12-IRES-Cre-ER-shp53 lentivirus was performed in 4-week-old Id-cTKO mice in accordance with guidelines of the […] Animal Care and Use Committee. Briefly, 1.3 μl of purified lentiviral particles in PBS (1×10^9/ml) were injected 1.45 mm lateral and 1.6 mm anterior to the bregma, and 2.3 mm below the skull using a stereotaxic frame (Kopf Instruments). Orthotopic implantation of mouse glioma cells was performed as described using 50,000 cells in 2 μof phosphate buffer (26). […] Mice were monitored daily and sacrificed when neurological symptoms appeared. Tumor volume was obtained using three-dimensional measurements in the formula for an ellipsoid: [Length×Width×Height×(π/6)]. The dimensions were derived from a complete, H&E stained, histological sectioning of the mouse brain. The length was determined by counting the number of sections containing tumor cells and multiplying it by the section thickness. […] Kaplan-Meier survival curve was generated using the DNA Statview software package (AbacusConcepts, Berkeley, Calif.).

CC/C(=C(\c1ccccc1)c1ccc(OCCN(C)C)cc1)c1ccccc1 [tamoxifen]
mice alive after a median of twenty weeks ([1]; Id-cTKO mice, HrasV12-Cre-ER-shp53 lentivirus, tamoxifen by feeding needle, 4-day cycles from day 12, seven of eleven mice): 64%
tumor growth ([1]; wild type animals infected with HrasV12-Cre-ER-shp53 lentivirus (without ID ablation), data not shown): did not affect tumor growth
reduction of the fraction of GICs residing within 10 μm from CD31-positive cells [2]: five-fold
tumor-sphere forming capacity ([3]; GICs derived from Id1wt/wt;Id2wt/wt;Id3-/- mice): no effect
tumor-sphere forming capacity ([3]; GICs isolated from Id-cTKO mice): abolished
minimal frequency of glioma cells endowed with stem cell capacity ([3]; limiting dilution, cells from freshly dissociated tumors of treated animals, control 3.84%±0.51): 0.29%±0.02
tumors with dramatic reduction of tumor volume compared with carrier-treated tumors ([4]; Id-cTKO mice sacrificed six weeks after tumor initiation): 80%
reduction in the proliferation rate measured by Ki67 immunoreactivity ([4]; Id-cTKO mice, six weeks after tumor initiation, versus control tumors): four-fold
ID1 and ID2 expression in advanced tumors by immunofluorescence ([4]; seven days after a single four-day cycle of tamoxifen treatment): loss of ID1 and ID2 expression
